pIC50: −log10 of the molar value.
Legend:
ARG = ARG (Homo sapiens, UniProt P42684); assay: kinase panel; format: biochemical
CRAF = CRAF (Homo sapiens, UniProt P04049); assay: kinase panel; format: biochemical
LYNB = LYNB (Homo sapiens, UniProt P07948); assay: kinase panel; format: biochemical
PKN1 = PKN1 (Homo sapiens, UniProt Q16512); assay: kinase panel; format: biochemical
Nicotinic (CNS) Receptor = assay: Nicotinic; format: binding; conditions: human IMR32 cells
[1] = molecular target: EGFR L858R/T790M in H1975 cells (Homo sapiens, UniProt P00533, L858R/T790M); assay: EGFR phosphorylation by western blotting; format: cell-based; conditions: western blot, 3h
CK1-GAMMA1 = CK1-GAMMA1 (Homo sapiens, UniProt Q9HCP0); assay: kinase panel; format: biochemical
P38-ALPHA = P38-ALPHA (Homo sapiens, UniProt Q16539); assay: kinase panel; format: biochemical
Sequence of P38-ALPHA (Q16539 whole entry): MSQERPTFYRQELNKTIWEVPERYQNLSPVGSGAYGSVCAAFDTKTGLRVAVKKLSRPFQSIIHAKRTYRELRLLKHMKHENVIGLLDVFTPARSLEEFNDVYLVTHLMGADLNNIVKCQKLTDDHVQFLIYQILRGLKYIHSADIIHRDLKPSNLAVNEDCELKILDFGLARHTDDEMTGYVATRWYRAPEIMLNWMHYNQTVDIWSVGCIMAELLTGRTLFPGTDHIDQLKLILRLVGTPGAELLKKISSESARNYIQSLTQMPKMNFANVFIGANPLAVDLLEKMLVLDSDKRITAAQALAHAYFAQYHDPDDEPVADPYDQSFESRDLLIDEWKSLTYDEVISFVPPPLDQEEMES

TAOK3 = TAOK3 (Homo sapiens, UniProt Q9H2K8); assay: kinase panel; format: biochemical
TYRO3 = TYRO3 (Homo sapiens, UniProt Q06418); assay: kinase panel; format: biochemical
FRAP1 = FRAP1 (Homo sapiens, UniProt P42345); assay: kinase panel; format: biochemical
TRKB = TRKB (Homo sapiens, UniProt Q16620); assay: kinase panel; format: biochemical
Sequence of TRKB (Q16620 32-822): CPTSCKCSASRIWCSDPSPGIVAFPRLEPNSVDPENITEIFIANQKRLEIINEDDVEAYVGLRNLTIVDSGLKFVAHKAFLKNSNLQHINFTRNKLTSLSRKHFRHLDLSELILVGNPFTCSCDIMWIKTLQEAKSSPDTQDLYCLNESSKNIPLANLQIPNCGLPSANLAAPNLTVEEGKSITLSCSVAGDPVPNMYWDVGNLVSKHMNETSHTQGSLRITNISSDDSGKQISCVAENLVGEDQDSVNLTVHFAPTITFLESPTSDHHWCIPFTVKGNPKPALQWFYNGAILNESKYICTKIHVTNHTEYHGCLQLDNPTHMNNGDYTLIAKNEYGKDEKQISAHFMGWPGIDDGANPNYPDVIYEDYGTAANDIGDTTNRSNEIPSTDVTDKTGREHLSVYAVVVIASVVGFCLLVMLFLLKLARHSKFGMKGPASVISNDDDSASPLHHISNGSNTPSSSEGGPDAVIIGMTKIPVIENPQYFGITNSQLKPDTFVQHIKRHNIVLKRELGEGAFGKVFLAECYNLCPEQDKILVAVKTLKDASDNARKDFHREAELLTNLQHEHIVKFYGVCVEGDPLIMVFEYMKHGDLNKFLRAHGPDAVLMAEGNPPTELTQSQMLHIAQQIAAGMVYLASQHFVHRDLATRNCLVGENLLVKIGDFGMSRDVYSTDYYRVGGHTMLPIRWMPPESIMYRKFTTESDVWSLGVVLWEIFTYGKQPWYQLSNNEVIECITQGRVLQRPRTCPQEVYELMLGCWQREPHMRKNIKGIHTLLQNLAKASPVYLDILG

MAP4K2 = MAP4K2 (Homo sapiens, UniProt Q12851); assay: kinase panel; format: biochemical
JAK1 = JAK1 (Homo sapiens, UniProt P23458); assay: kinase panel; format: biochemical
Monoamine Oxidase A = Monoamine Oxidase A (Homo sapiens, UniProt P21397); assay: Monoamine Oxidase A assay; format: biochemical
Sequence of Monoamine Oxidase A (P21397 whole entry): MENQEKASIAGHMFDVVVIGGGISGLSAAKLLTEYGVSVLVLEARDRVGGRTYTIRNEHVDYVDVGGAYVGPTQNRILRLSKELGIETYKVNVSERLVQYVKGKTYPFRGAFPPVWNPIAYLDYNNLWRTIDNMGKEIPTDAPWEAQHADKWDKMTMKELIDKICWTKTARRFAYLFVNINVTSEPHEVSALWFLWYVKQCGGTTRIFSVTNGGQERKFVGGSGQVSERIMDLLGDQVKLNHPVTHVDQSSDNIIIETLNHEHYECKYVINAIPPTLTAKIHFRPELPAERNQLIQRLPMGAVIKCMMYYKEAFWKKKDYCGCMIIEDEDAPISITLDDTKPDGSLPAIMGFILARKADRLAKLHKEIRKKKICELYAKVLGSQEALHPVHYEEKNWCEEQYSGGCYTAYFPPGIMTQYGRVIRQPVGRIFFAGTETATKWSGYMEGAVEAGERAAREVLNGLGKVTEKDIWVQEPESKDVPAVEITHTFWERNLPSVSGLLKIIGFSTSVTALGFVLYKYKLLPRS

EPH-B4 = EPH-B4 (Homo sapiens, UniProt P54760); assay: kinase panel; format: biochemical
EPH-A1 = EPH-A1 (Homo sapiens, UniProt P21709); assay: kinase panel; format: biochemical
AKT1 = AKT1 (Homo sapiens, UniProt P31749); assay: kinase panel; format: biochemical
EPH-A4 = EPH-A4 (Homo sapiens, UniProt P54764); assay: kinase panel; format: biochemical
TAK1-TAB1 = TAK1-TAB1 (Homo sapiens, UniProt O43318); assay: kinase panel; format: biochemical
PAK2 = PAK2 (Homo sapiens, UniProt Q13177); assay: kinase panel; format: biochemical
PI3K-ALPHA = PI3K-ALPHA (Homo sapiens, UniProt P42336); assay: kinase panel; format: biochemical
PKC-ALPHA = PKC-ALPHA (Homo sapiens, UniProt P17252); assay: kinase panel; format: biochemical
HCK = HCK (Homo sapiens, UniProt P08631); assay: kinase panel; format: biochemical
PYK2 = PYK2 (Homo sapiens, UniProt Q14289); assay: kinase panel; format: biochemical
KIT = KIT (Homo sapiens, UniProt P10721); assay: kinase panel; format: biochemical
Sequence of KIT (P10721 26-976): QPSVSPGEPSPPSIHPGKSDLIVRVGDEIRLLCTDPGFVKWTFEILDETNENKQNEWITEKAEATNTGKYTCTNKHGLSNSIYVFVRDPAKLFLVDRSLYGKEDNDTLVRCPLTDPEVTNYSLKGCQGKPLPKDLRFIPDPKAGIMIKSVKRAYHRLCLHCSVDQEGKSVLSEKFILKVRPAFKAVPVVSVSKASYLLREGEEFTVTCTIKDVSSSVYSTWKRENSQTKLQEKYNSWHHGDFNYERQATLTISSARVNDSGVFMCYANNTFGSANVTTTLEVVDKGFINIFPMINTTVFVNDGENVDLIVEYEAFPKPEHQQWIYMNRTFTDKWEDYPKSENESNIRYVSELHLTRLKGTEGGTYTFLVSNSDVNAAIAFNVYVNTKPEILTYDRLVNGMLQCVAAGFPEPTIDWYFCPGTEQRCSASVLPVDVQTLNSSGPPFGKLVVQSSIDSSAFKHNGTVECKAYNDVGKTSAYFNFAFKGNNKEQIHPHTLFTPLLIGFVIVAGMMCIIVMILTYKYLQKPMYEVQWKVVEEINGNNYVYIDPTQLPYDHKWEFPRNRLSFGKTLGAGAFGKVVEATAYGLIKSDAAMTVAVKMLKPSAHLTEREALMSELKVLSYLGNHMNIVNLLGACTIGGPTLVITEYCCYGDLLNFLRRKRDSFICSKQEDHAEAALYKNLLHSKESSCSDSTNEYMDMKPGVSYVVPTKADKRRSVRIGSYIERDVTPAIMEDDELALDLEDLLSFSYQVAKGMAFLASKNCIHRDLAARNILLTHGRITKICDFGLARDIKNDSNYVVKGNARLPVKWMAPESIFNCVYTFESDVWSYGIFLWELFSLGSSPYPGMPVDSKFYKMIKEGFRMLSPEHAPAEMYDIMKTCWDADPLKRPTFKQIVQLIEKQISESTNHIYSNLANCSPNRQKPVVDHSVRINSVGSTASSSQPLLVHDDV

MEK1 = MEK1 (Homo sapiens, UniProt Q02750); assay: kinase panel; format: biochemical
Sequence of MEK1 (Q02750 whole entry): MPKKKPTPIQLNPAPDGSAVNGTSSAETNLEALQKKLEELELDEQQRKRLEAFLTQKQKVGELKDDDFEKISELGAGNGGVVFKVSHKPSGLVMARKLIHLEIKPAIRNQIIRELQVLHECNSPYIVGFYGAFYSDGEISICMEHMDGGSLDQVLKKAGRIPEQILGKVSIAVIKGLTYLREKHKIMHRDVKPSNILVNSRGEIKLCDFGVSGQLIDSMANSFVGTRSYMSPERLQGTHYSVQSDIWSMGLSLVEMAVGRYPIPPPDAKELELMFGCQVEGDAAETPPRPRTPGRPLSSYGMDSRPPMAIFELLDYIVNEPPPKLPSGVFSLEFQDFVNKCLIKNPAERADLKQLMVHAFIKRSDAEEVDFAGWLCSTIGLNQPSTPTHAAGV

SGK1 = SGK1 (Homo sapiens, UniProt O00141); assay: kinase panel; format: biochemical
RON = RON (Homo sapiens, UniProt Q04912); assay: kinase panel; format: biochemical
FGFR1 = FGFR1 (Homo sapiens, UniProt P11362); assay: kinase panel; format: biochemical
SLK = SLK (Homo sapiens, UniProt Q9H2G2); assay: kinase panel; format: biochemical
H1 receptor = H1 receptor (Homo sapiens, UniProt P35367); assay: H1 receptor calcium assay; format: cell-based
MKNK1 = MKNK1 (Homo sapiens, UniProt Q9BUB5); assay: kinase panel; format: biochemical
TSSK2 = TSSK2 (Homo sapiens, UniProt Q96PF2); assay: kinase panel; format: biochemical
LCK = LCK (Homo sapiens, UniProt P06239); assay: kinase panel; format: biochemical
[2] = Mouse pharmacokinetic studies; format: in vivo; conditions: 20 mg/kg
P38-GAMMA = P38-GAMMA (Homo sapiens, UniProt P53778); assay: kinase panel; format: biochemical
TEC = TEC (Homo sapiens, UniProt P42680); assay: kinase panel; format: biochemical
LIMK1 = LIMK1 (Homo sapiens, UniProt P53667); assay: kinase panel; format: biochemical
TNIK = TNIK (Homo sapiens, UniProt Q9UKE5); assay: kinase panel; format: biochemical
Sequence of TNIK (Q9UKE5 whole entry): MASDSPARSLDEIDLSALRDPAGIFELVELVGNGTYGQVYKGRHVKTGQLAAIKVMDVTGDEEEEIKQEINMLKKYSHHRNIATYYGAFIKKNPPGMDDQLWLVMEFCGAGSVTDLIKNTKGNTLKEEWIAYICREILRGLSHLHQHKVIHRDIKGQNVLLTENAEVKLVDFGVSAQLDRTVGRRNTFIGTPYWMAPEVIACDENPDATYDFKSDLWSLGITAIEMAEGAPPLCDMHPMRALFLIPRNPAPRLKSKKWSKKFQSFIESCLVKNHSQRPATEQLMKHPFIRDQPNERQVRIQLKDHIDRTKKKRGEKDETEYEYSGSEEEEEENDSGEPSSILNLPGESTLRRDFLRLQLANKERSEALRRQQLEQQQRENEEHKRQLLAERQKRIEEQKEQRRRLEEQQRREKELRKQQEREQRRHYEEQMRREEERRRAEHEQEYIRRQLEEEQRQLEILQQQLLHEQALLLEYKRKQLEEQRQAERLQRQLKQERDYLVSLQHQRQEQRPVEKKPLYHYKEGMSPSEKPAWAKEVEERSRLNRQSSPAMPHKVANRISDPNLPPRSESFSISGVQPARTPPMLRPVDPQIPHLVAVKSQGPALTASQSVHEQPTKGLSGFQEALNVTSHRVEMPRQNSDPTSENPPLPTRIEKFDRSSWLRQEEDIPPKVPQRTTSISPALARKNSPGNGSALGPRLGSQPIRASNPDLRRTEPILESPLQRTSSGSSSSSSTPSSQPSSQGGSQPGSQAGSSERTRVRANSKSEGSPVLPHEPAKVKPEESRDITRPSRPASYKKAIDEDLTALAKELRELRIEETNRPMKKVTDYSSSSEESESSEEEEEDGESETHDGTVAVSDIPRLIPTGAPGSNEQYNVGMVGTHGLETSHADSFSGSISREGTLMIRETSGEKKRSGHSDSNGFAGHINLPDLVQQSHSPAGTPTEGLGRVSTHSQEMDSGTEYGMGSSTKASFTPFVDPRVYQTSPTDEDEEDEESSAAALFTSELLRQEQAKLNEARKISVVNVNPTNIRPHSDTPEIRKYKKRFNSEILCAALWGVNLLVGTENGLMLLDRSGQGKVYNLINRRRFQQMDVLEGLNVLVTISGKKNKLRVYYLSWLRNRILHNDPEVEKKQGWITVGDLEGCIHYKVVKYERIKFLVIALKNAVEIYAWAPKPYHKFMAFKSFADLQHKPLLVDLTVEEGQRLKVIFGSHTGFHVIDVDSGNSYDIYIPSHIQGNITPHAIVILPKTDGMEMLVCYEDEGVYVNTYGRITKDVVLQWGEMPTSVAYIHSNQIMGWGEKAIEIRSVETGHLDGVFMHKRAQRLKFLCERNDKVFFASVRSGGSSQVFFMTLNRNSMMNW

CDK1 = CDK1 (Homo sapiens, UniProt P06493); assay: kinase panel; format: biochemical
[3] = tested on: panel of 250 protein kinases; assay: Profiling against a panel of 250 protein kinases; format: biochemical; conditions: 1 μM EAI045
Progesterone Receptor = Progesterone Receptor (Homo sapiens, UniProt P06401); assay: Progesterone Receptor antagonist assay; format: cell-based
RSK1 = RSK1 (Homo sapiens, UniProt Q15418); assay: kinase panel; format: biochemical

O=C(Nc1nccs1)C(c1cc(F)ccc1O)N1Cc2ccccc2C1=O (stereo not drawn) [EAI045, 2-(5-fluoro-2-hydroxyphenyl)-2-(1-oxo-2,3-dihydro-1H-isoindol-2-yl)-N-(1,3-thiazol-2-yl)acetamide]
inhibition at 1 µM (ARG): 2%
inhibition at 1 µM (CRAF): 0%
inhibition at 1 µM (LYNB): 3%
inhibition at 1 µM (PKN1): 0%
pIC50 (Nicotinic (CNS) Receptor): < 4.52
EGFR autophosphorylation [1]: potently decreased, but did not completely eliminate EGFR autophosphorylation
inhibition at 1 µM (CK1-GAMMA1): 2%
inhibition at 1 µM (P38-ALPHA): 0%
inhibition at 1 µM (TAOK3): 0%
inhibition at 1 µM (TYRO3): 0%
inhibition at 1 µM (FRAP1): 0%
inhibition at 1 µM (TRKB): 3%
inhibition at 1 µM (MAP4K2): 0%
inhibition at 1 µM (JAK1): 0%
pIC50 (Monoamine Oxidase A): < 4.52
inhibition at 1 µM (EPH-B4): 0%
inhibition at 1 µM (EPH-A1): 0%
inhibition at 1 µM (AKT1): 0%
inhibition at 1 µM (EPH-A4): 0%
inhibition at 1 µM (TAK1-TAB1): 0%
inhibition at 1 µM (PAK2): 0%
inhibition at 1 µM (PI3K-ALPHA): 0%
inhibition at 1 µM (PKC-ALPHA): 0%
inhibition at 1 µM (HCK): 0%
inhibition at 1 µM (PYK2): 4%
inhibition at 1 µM (KIT): 0%
inhibition at 1 µM (MEK1): 0%
inhibition at 1 µM (SGK1): 6%
inhibition at 1 µM (RON): 0%
inhibition at 1 µM (FGFR1): 5%
inhibition at 1 µM (SLK): 0%
pIC50 (H1 receptor): < 4.52
inhibition at 1 µM (MKNK1): 0%
inhibition at 1 µM (TSSK2): 0%
inhibition at 1 µM (LCK): 0%
maximal plasma concentration [2]: 0.57 µM
half-life ([2]; plasma, oral): 2.15 h
inhibition at 1 µM (P38-GAMMA): 2%
inhibition at 1 µM (TEC): 4%
inhibition at 1 µM (LIMK1): 0%
inhibition at 1 µM (TNIK): 0%
inhibition at 1 µM (CDK1): 2%
inhibition of other kinases in the panel [3]: ≤ 20%
pIC50 (Progesterone Receptor): < 4.52
inhibition at 1 µM (RSK1): 0%

Source: publication PMC4929832 (Nature, 2016)
